Measurements as given in PubChem BioAssay (NCI).
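Briefly, cells in 96-well plates were exposed to five compound concentrations for 48 h, and endpoints were estimated by linear interpolation. TGI: concentration producing complete growth inhibition.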

Legend:
Experiment in all cases: growth of human tumour cells (NCI), 48 h
786-0 renal = tested on: 786-0 renal
A498 renal = tested on: A498 renal
A549 NSCLC = tested on: A549 NSCLC
ACHN renal = tested on: ACHN renal
BT-549 breast = tested on: BT-549 breast
CAKI-1 renal = tested on: CAKI-1 renal
COLO 205 colon = tested on: COLO 205 colon
DU-145 prostate = tested on: DU-145 prostate
EKVX NSCLC = tested on: EKVX NSCLC
HCC-2998 colon = tested on: HCC-2998 colon
HCT-116 colon = tested on: HCT-116 colon
HCT-15 colon = tested on: HCT-15 colon
HL-60(TB) leukemia = tested on: HL-60(TB) leukemia
HOP-62 NSCLC = tested on: HOP-62 NSCLC
HOP-92 NSCLC = tested on: HOP-92 NSCLC
HS 578T breast = tested on: HS 578T breast
HT29 colon = tested on: HT29 colon
IGROV1 ovarian = tested on: IGROV1 ovarian
K-562 leukemia = tested on: K-562 leukemia
KM12 colon = tested on: KM12 colon
LOX IMVI melanoma = tested on: LOX IMVI melanoma
M14 melanoma = tested on: M14 melanoma
MALME-3M melanoma = tested on: MALME-3M melanoma
MCF7 breast = tested on: MCF7 breast
MDA-MB-231 breast = tested on: MDA-MB-231 breast
MDA-MB-435 = tested on: MDA-MB-435
MDA-N = tested on: MDA-N
MOLT-4 leukemia = tested on: MOLT-4 leukemia
NCI-H226 lung = tested on: NCI-H226 lung
NCI-H23 lung = tested on: NCI-H23 lung
NCI-H460 lung = tested on: NCI-H460 lung
NCI/ADR-RES ovarian = tested on: NCI/ADR-RES ovarian
OVCAR-3 ovarian = tested on: OVCAR-3 ovarian
OVCAR-4 ovarian = tested on: OVCAR-4 ovarian
OVCAR-5 ovarian = tested on: OVCAR-5 ovarian
OVCAR-8 ovarian = tested on: OVCAR-8 ovarian
PC-3 prostate = tested on: PC-3 prostate
RPMI-8226 leukemia = tested on: RPMI-8226 leukemia
RXF 393 renal = tested on: RXF 393 renal
SF-268 CNS = tested on: SF-268 CNS
SF-295 CNS = tested on: SF-295 CNS
SF-539 CNS = tested on: SF-539 CNS
SK-MEL-2 melanoma = tested on: SK-MEL-2 melanoma
SK-MEL-28 melanoma = tested on: SK-MEL-28 melanoma
SK-MEL-5 melanoma = tested on: SK-MEL-5 melanoma
SK-OV-3 ovarian = tested on: SK-OV-3 ovarian
SN12C renal = tested on: SN12C renal
SNB-19 CNS = tested on: SNB-19 CNS
SNB-75 CNS = tested on: SNB-75 CNS
SR leukemia = tested on: SR leukemia
SW-620 colon = tested on: SW-620 colon
T-47D breast = tested on: T-47D breast
TK-10 renal = tested on: TK-10 renal
U251 CNS = tested on: U251 CNS
UACC-257 melanoma = tested on: UACC-257 melanoma
UACC-62 melanoma = tested on: UACC-62 melanoma
UO-31 renal = tested on: UO-31 renal
CCRF-CEM leukemia = tested on: CCRF-CEM leukemia
NCI-H522 lung = tested on: NCI-H522 lung

COC(=O)C1(c2cc3ccccc3n2S(=O)(=O)c2ccccc2)CC2C=CC1NC2 (configuration not stated)
TGI (786-0 renal): 2.9 µM
TGI (A498 renal): 13 µM
TGI (A549 NSCLC): 10.9 µM
TGI (ACHN renal): 3.82 µM
TGI (BT-549 breast): 6.48 µM
TGI (CAKI-1 renal): 4.27 µM
TGI (COLO 205 colon): 4.61 µM
TGI (DU-145 prostate): 6.62 µM
TGI (EKVX NSCLC): 15.1 µM
TGI (HCC-2998 colon): 3.8 µM
TGI (HCT-116 colon): 6.16 µM
TGI (HCT-15 colon): 3.93 µM
TGI (HL-60(TB) leukemia): 4.71 µM
TGI (HOP-62 NSCLC): 3.92 µM
TGI (HOP-92 NSCLC): 4.12 µM
TGI (HS 578T breast): > 25.9 µM
TGI (HT29 colon): 4.44 µM
TGI (IGROV1 ovarian): 3.22 µM
TGI (K-562 leukemia): 5.01 µM
TGI (KM12 colon): 8.29 µM
TGI (LOX IMVI melanoma): 3.73 µM
TGI (M14 melanoma): 3.44 µM
TGI (MALME-3M melanoma): > 22.8 µM
TGI (MCF7 breast): 3.06 µM
TGI (MDA-MB-231 breast): 3.67 µM
TGI (MDA-MB-435): 3.86 µM
TGI (MDA-N): 6.23 µM
TGI (MOLT-4 leukemia): 4.95 µM
TGI (NCI-H226 lung): 21.4 µM
TGI (NCI-H23 lung): 6.85 µM
TGI (NCI-H460 lung): > 29.6 µM
TGI (NCI/ADR-RES ovarian): 6.95 µM
TGI (OVCAR-3 ovarian): 5.43 µM
TGI (OVCAR-4 ovarian): 6.07 µM
TGI (OVCAR-5 ovarian): 6.37 µM
TGI (OVCAR-8 ovarian): 4.42 µM
TGI (PC-3 prostate): 3.05 µM
TGI (RPMI-8226 leukemia): 2.74 µM
TGI (RXF 393 renal): 3.5 µM
TGI (SF-268 CNS): > 20.2 µM
TGI (SF-295 CNS): 10.2 µM
TGI (SF-539 CNS): 3.55 µM
TGI (SK-MEL-2 melanoma): 3.63 µM
TGI (SK-MEL-28 melanoma): 8.49 µM
TGI (SK-MEL-5 melanoma): 16.7 µM
TGI (SK-OV-3 ovarian): 13.2 µM
TGI (SN12C renal): 4.69 µM
TGI (SNB-19 CNS): 5.98 µM
TGI (SNB-75 CNS): 17.9 µM
TGI (SR leukemia): 0.427 µM
TGI (SW-620 colon): > 21.7 µM
TGI (T-47D breast): 13.5 µM
TGI (TK-10 renal): 4.85 µM
TGI (U251 CNS): 2.75 µM
TGI (UACC-257 melanoma): 4.93 µM
TGI (UACC-62 melanoma): 3.31 µM
TGI (UO-31 renal): 2.86 µM

COc1cc(NC(C)=O)ccc1C(=O)N/N=C/c1ccc(Cl)cc1Cl
TGI (786-0 renal): 64.4 µM
TGI (A498 renal): 61 µM
TGI (A549 NSCLC): > 100 µM
TGI (ACHN renal): > 100 µM
TGI (BT-549 breast): > 100 µM
TGI (CAKI-1 renal): > 100 µM
TGI (CCRF-CEM leukemia): > 100 µM
TGI (COLO 205 colon): > 100 µM
TGI (DU-145 prostate): > 100 µM
TGI (EKVX NSCLC): > 100 µM
TGI (HCC-2998 colon): > 100 µM
TGI (HCT-116 colon): > 100 µM
TGI (HCT-15 colon): > 100 µM
TGI (HL-60(TB) leukemia): > 100 µM
TGI (HOP-62 NSCLC): > 100 µM
TGI (HOP-92 NSCLC): > 100 µM
TGI (HS 578T breast): > 100 µM
TGI (HT29 colon): > 100 µM
TGI (IGROV1 ovarian): > 100 µM
TGI (K-562 leukemia): > 100 µM
TGI (KM12 colon): > 100 µM
TGI (LOX IMVI melanoma): > 100 µM
TGI (M14 melanoma): > 100 µM
TGI (MALME-3M melanoma): > 100 µM
TGI (MCF7 breast): > 100 µM
TGI (MDA-MB-435): 56.4 µM
TGI (MDA-N): 72.7 µM
TGI (MOLT-4 leukemia): > 100 µM
TGI (NCI-H226 lung): > 100 µM
TGI (NCI-H23 lung): > 100 µM
TGI (NCI-H522 lung): > 100 µM
TGI (NCI/ADR-RES ovarian): > 100 µM
TGI (OVCAR-3 ovarian): > 100 µM
TGI (OVCAR-4 ovarian): 85.5 µM
TGI (OVCAR-5 ovarian): > 100 µM
TGI (OVCAR-8 ovarian): > 100 µM
TGI (PC-3 prostate): > 100 µM
TGI (RPMI-8226 leukemia): > 100 µM
TGI (RXF 393 renal): 72.5 µM
TGI (SF-268 CNS): > 100 µM
TGI (SF-295 CNS): > 100 µM
TGI (SF-539 CNS): > 100 µM
TGI (SK-MEL-2 melanoma): 51.3 µM
TGI (SK-MEL-28 melanoma): > 100 µM
TGI (SK-MEL-5 melanoma): > 100 µM
TGI (SK-OV-3 ovarian): > 100 µM
TGI (SN12C renal): 64.6 µM
TGI (SNB-19 CNS): > 100 µM
TGI (SNB-75 CNS): 36.5 µM
TGI (SR leukemia): > 100 µM
TGI (SW-620 colon): > 100 µM
TGI (T-47D breast): 70.8 µM
TGI (UACC-257 melanoma): 70.9 µM
TGI (UACC-62 melanoma): > 100 µM
TGI (UO-31 renal): > 100 µM
